The source of these data is patent US20080200403A1, “9A-Carbamoyl and Thiocarbamoyl Azalides with Anti-Inflammatory Activity” (GLAXOSMITHKLINE, priority 2005, published 2008).

The test system of this data set is granulocytes. Description: Accumulation in granulocytes (LC-MS). It counts as in vitro ADME. The conditions noted are these: 180 min. The protocol:
Granulocytes were obtained from heparinized whole blood using density gradient centrifugation. Erythrocytes were sedimented on 3% dextran T-500 (Amersham Pharmacia Biotech AB, Uppsala, Sweden). Leukocytes were centrifuged on Ficoll (Amersham Pharmacia Biotech AB, Uppsala, Sweden) for 35 min at 600 g at 20° C. The pellet of granulocytes was cleared from remaining erythrocytes by a brief hypotonic lysis.
7.5×10^6 granulocytes, isolated as described above, were suspended in 3 mL of RPMI 1640 (Institute of Immunology, Croatia) containing 10 μM of tested macrolide. Samples were incubated at 37° C. for 180 min. Following incubation, the samples were centrifuged through the layer of Poly(dimethylsiloxane-co-diphenylsiloxane), dihydroxy terminated—silicone oil (Aldrich Chemical Company, Milwaukee, USA). The pellet was resuspended in 0.5% Triton X-100 (Sigma, St. Louis, USA) in deionized water (MilliQ, Millipore Corporation, Bedford, USA). The suspension was sonicated, proteins were precipitated with acetonitrile, and the concentration of macrolide in the supernatants was determined by liquid chromatography-mass spectrometry (LC-MS).
Intracellular concentrations of the test compounds were calculated from the mean cell number recovered after centrifuging through silicone oil. According to the literature, about 1 million neutrophils is considered to have a volume of 0.24 μL (Vazifeh et al., Antimicrob Agents Chemo. 1997; 41: 2099-2107). To estimate the extent of macrolide accumulation, the intracellular to extracellular concentration ratio (I/E) was calculated, where E (due to a large volume of incubation medium) was taken as constant (10 μM). Results are expressed relative to azithromycin according to the following equation: % of azithromycin uptake=(I/E of a substance/I/E of azithromycin)×100. I/E values obtained for azithromycin were 164±10.

In the case of `CCC1OC(=O)C(C)C(OC2CC(C)(OC)C(O)C(C)O2)C(C)C(OC2OC(C)CC(N(C)C)C2O)C(C)(O)CC(C)CN(C(=S)Nc2cccc(F)c2)C(C)C(O)C1(C)O` (stereo not drawn) [Compound 3], the “% of azithromycin uptake” value (granulocytes, 10 μM macrolide, 37° C., (I/E of substance/I/E of azithromycin)×100) is 93%. Take `CC[C@H]1OC(=O)[C@H](C)[C@@H](O[C@H]2C[C@@](C)(OC)[C@@H](O)[C@H](C)O2)[C@H](C)[C@@H](O[C@@H]2O[C@H](C)C[C@H](N(C)C)[C@H]2O)[C@](C)(O)C[C@@H](C)CN(C)[C@H](C)[C@@H](O)[C@]1(C)O` [Azithromycin, azithromycin, reference compound]: for the setting “10 μM”, the “% of azithromycin uptake” value was determined as 100% and the “intracellular to extracellular concentration ratio (I/E)” value turned out to be 164±10.
